Reference: a melting point compilation (Tetko et al.)

Compared with `Clc1cccc(Nc2nc3ccccc3s2)c1`, `Cc1ccccc1Nc1nnc(S)s1` is higher in melting point: 173 to 175 °C for the first, 230 to 232 °C for the second.

Compared with `Cc1nc2scc(C)n2c1C=O`, `Cn1cc(-c2ncc(C=O)s2)cn1` is lower in melting point: 153 to 155 °C for the first, 141 to 143 °C for the second.

Compared with `COc1ccc(NC#N)cc1Cl`, `C=CCc1ccc(OCC(=O)O)c(OC)c1` is higher in melting point: 95 to 97 °C for the first, 169 to 172 °C for the second.

Compared with `Cc1ccsc1-c1nnc(S)o1`, `Cc1cccc(F)c1C#N` is lower in melting point: 211 to 213 °C for the first, 45 to 47 °C for the second.

Compared with `CCOc1ncccc1C(=O)O`, `CC(C)c1ccccc1OCCC(=O)O` is lower in melting point: 90 to 92 °C for the first, 84 to 86 °C for the second.

Compared with `COc1ccc(C(=O)c2ccco2)cc1`, `COc1ccc(S(=O)(=O)CC(C)C(=O)O)cc1` (stereo unspecified) is higher in melting point: 62 to 64 °C for the first, 116 to 118 °C for the second.

First: NNC(=O)CCOc1ccccc1
Second: COC(=O)C1(O)CCN(Cc2ccccc2)CC1
The melting point of the first is lower: 69 to 71 °C for the first, 75 to 77 °C for the second.

First: O=C(O)CNC(=O)c1ccoc1
Second: O=C(O)CNC(=O)/C=C/c1ccco1
The melting point of the first is lower: 165 to 167 °C for the first, 218 to 221 °C for the second.

First: O=C(CCl)NNC(=O)C1CCC1
Second: O=C1CC(C(=O)O)CN1 (stereo unspecified)
The melting point of the first is higher: 199 to 201 °C for the first, 129 to 131 °C for the second.

First: Cc1ccc(/C=C/S(=O)(=O)Cl)cc1
Second: Cc1ccc(NC(=O)C(=O)O)cc1
The melting point of the first is lower: 111 to 113 °C for the first, 170 to 172 °C for the second.

Compared with `COc1ccc(N)cc1NC(=O)c1cccc(F)c1`, `COC(=O)c1ccc(Sc2ccc(Cl)cn2)c(N)c1` is higher in melting point: 100 to 102 °C for the first, 121 to 123 °C for the second.

First: O=C(O)c1cccc(=O)n1CCOc1ccccc1Cl
Second: Cn1c(=O)cc(C(=O)O)c2ccccc21
The melting point of the first is lower: 118 to 120 °C for the first, 250 to 252 °C for the second.

Compared with `O=C=Nc1ccc2c(c1)OCO2`, `O=C1NC(=O)C2(CCOc3ccccc32)N1` (stereo unspecified) is higher in melting point: 48 to 51 °C for the first, 120 to 122 °C for the second.

Compared with `Clc1cc(Cl)cc(-c2nnc3ccc(Cl)nn23)c1`, `Nc1cc(-c2ccco2)nn1-c1ccc(Cl)cc1` is lower in melting point: 209 to 211 °C for the first, 129 to 131 °C for the second.

First: Cc1cccc(C2(C(F)(F)F)CCCN2)c1C (stereo unspecified)
Second: Cc1ccccc1C1(C(=O)O)CCCCC1
The melting point of the first is lower: 45 to 47 °C for the first, 162 to 164 °C for the second.

`O=C(O)c1oc2ccccc2c1Cn1cccn1` and `O=C(O)c1ccc(S(=O)(=O)Nc2ccccc2)cc1` cannot be ordered by melting point: 226 to 228 °C for the first, 225 to 228 °C for the second.

Compared with `O=Cc1cn(Cc2cccnc2)nn1`, `Cc1ccc(-c2nn(Cc3ccccc3)cc2C=O)cc1C` is lower in melting point: 97 to 99 °C for the first, 79 to 81 °C for the second.

First: CC1CC(C)CN(S(=O)(=O)c2ccc(N)cc2)C1 (stereo unspecified)
Second: Nc1cc(S(=O)(=O)NC2CC2)ccc1F
The melting point of the first is higher: 157 to 159 °C for the first, 101 to 103 °C for the second.

Compared with `O=C(c1ccc(S(=O)(=O)Cl)cc1)N1CCCCC1`, `O=C(O)c1ccc(NS(=O)(=O)c2cccs2)cc1` is higher in melting point: 97 to 99 °C for the first, 226 to 228 °C for the second.

First: CCOC(=O)COc1ccc(S(C)(=O)=O)cc1[N+](=O)[O-]
Second: NS(=O)(=O)c1ccc(Br)c(C(=O)O)c1
The melting point of the first is lower: 131 to 133 °C for the first, 231 to 233 °C for the second.

First: C#CCNC(=O)Nc1ccccc1F
Second: CCc1ccccc1NC(=O)CC(C)=O
The melting point of the first is higher: 134 to 136 °C for the first, 89 to 91 °C for the second.

First: CSc1cccc(NC(=O)C(C)Cl)c1 (stereo unspecified)
Second: CC(Cl)C(=O)NCCc1cccs1 (stereo unspecified)
The melting point of the first is higher: 81 to 83 °C for the first, less than 17 °C for the second.

First: CC1CCC(Cn2c(N)cc(=O)[nH]c2=O)CC1 (stereo unspecified)
Second: CS(=O)(=O)Cc1cccc(N)c1
The melting point of the first is higher: 239 to 241 °C for the first, 121 to 123 °C for the second.

First: O=C1CCc2cc(Cl)c(S(=O)(=O)Cl)cc2N1
Second: Cc1cc(Br)c(C)c(S(=O)(=O)Cl)c1
The melting point of the first is higher: 207 to 209 °C for the first, 163 to 165 °C for the second.

Compared with `CC(=O)c1cnn(-c2ccc(F)cc2)c1C`, `Cc1ccc(-n2c(C)ccc2C)c(C(=O)O)c1` is higher in melting point: 87 to 89 °C for the first, 157 to 159 °C for the second.

First: C#CCN1CCC(NC2CCOCC2)CC1
Second: OCc1cnc(N2CCOCC2)s1
The melting point of the first is lower: 74 to 76 °C for the first, 101 to 103 °C for the second.

First: O=C(O)C1(c2ccc(OCc3ccccc3)cc2)CCOCC1
Second: Cn1cc(COc2ccc(O)cc2)cn1
The melting point of the first is lower: 151 to 153 °C for the first, 186 to 188 °C for the second.

First: CSCc1nc(N)ccc1Cl
Second: Nc1n[nH]c2c(Cl)cccc12
The melting point of the first is lower: 70 to 72 °C for the first, 189 to 191 °C for the second.

First: CC(Oc1ccc(Cl)c(Cl)c1)C(=O)O (stereo unspecified)
Second: O=C(O)c1cc(Cl)cc(Br)c1O
The melting point of the first is lower: 125 to 127 °C for the first, 214 to 216 °C for the second.

First: CC1CSC(=S)N1 (stereo unspecified)
Second: CC(C)(C)OC(=O)NC(CN)C1CC1 (stereo unspecified)
The melting point of the first is higher: 94 to 96 °C for the first, 57 to 59 °C for the second.

First: OCCCc1nc2ncccn2n1
Second: O=C(O)CCCNC(=O)c1ccc2[nH]nnc2c1
The melting point of the first is lower: 76 to 78 °C for the first, 230 to 232 °C for the second.

First: CCn1c(CCC(=O)O)nc2cc(S(N)(=O)=O)ccc21
Second: O=C(O)c1c(F)ccc([N+](=O)[O-])c1F
The melting point of the first is higher: 263 to 265 °C for the first, 92 to 96 °C for the second.

First: N#CC1(c2cccc(Br)c2)CCOCC1
Second: O=[N+]([O-])c1ccc(F)c(-n2cnnn2)c1
The melting point of the first is lower: 90 to 92 °C for the first, 101 to 103 °C for the second.

First: C=CCn1c(S)n[nH]c1=O
Second: Cc1ccc(F)c2c1NC(=O)C2=O
The melting point of the first is lower: 135 to 137 °C for the first, 227 to 229 °C for the second.

Compared with `CCOC(=O)C(=O)C=Cc1ccsc1`, `COC(=O)c1cc2ccccn2c1` is higher in melting point: 53 to 55 °C for the first, 94 to 96 °C for the second.

With `O=C(O)c1cc([N+](=O)[O-])c(F)c([N+](=O)[O-])c1` the melting point was 237 to 239 °C.
